Read-outs that look alike come from different tables or passages of the source.
What was measured:
human α2C‐adrenoceptor [1] = molecular target: T1, human α2C‐adrenoceptor (Homo sapiens, UniProt P18825); experiment: 3H‐rauwolscine whole cell binding in CHO‐α2C cells; parameters: expressed in transfected cells; host or cells: CHO-K1 with CRE-SPAP reporter; conditions: for Selectivity ratio α2B vs α2C (higher affinity for α2C): fold, from KD values, 1 = no selectivity
T1 sequence (P18825 1-462): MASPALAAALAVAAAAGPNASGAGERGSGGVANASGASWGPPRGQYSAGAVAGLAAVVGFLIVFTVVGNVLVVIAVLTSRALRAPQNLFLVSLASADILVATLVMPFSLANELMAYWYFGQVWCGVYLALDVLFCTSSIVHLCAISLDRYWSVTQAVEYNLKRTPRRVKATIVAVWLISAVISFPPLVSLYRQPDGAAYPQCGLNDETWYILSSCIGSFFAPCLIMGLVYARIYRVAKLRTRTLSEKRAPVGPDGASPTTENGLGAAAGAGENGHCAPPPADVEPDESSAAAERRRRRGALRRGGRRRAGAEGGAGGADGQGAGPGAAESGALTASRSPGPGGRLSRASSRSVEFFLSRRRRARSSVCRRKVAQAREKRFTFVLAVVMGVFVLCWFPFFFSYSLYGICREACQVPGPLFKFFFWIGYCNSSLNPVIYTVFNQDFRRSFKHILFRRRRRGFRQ

human α2A‐adrenoceptor [2] = molecular target: T2, human α2A‐adrenoceptor (Homo sapiens, UniProt P08913); experiment: 3H‐rauwolscine whole cell binding in CHO‐α2A cells; parameters: expressed in transfected cells; host or cells: CHO-K1 with CRE-SPAP reporter; conditions: for Kd: 3H‐rauwolscine whole cell binding; for Selectivity ratio α2A vs α2B (higher affinity for α2A) / Selectivity ratio α2A vs α2C (higher affinity for α2A): fold, from KD values, 1 = no selectivity
T2 sequence (P08913 1-465): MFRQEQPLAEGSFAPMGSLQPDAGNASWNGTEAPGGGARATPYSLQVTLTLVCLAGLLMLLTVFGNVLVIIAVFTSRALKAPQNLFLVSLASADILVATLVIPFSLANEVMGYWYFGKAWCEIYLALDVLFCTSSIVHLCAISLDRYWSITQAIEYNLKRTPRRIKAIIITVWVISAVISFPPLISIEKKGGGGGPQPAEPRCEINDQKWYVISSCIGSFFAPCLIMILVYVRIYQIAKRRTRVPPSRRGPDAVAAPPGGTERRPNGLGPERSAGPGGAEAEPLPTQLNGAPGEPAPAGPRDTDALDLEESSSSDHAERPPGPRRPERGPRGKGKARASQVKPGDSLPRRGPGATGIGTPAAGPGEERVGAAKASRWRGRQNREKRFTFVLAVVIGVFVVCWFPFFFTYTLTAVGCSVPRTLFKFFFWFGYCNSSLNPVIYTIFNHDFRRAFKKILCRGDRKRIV

human α2A‐adrenoceptor [3] = molecular target: T2, human α2A‐adrenoceptor; conditions: for % inhibition, CRE-SPAP (with forskolin): from 3 μM forskolin control; for % inhibition, CRE‐SPAP (with forskolin) / Log EC50 (Gs), CRE‐SPAP (without forskolin): CHO‐α2A (cell line 1); for % inhibition, CRE‐SPAP (with forskolin): % inhibition from the 3 μM forskolin control, inhibition only; for Log EC50 (Gs), CRE‐SPAP (without forskolin): absence of forskolin; for Log efficacy ratio (KD/IC50): binding KD / Gi IC50 of CRE‐SPAP
human α2C‐adrenoceptor [4] = molecular target: T1, human α2C‐adrenoceptor; conditions: for % inhibition, CRE‐SPAP (with forskolin): % inhibition from the 3 μM forskolin control, mean ± SEM; for Log EC50 (Gs), CRE‐SPAP (without forskolin): CRE‐SPAP production in the absence of forskolin; for Log efficacy ratio (KD/IC50): log KD from 3H‐rauwolscine binding versus CRE‐SPAP log IC50
human α2C‐adrenoceptor [5] = molecular target: T1, human α2C‐adrenoceptor; experiment: ERK1/2‐phosphorylation in CHO‐α2C cells; type: cell-based; parameters: expressed in transfected cells; host or cells: CHO-K1 with CRE-SPAP reporter; conditions: CHO‐α2C cells; for % 10 μM PDBu, ERK1/2‐phosphorylation: maximum response compared to 10 μM PDBu, mean ± SEM; for EC50: given as negative log EC50, mean ± SEM, read-out: Log EC50, ERK1/2‐phosphorylation (converted)
human α2A‐adrenoceptor [6] = molecular target: T2, human α2A‐adrenoceptor; experiment: ERK1/2‐phosphorylation in CHO‐α2A cells; type: cell-based; parameters: expressed in transfected cells; host or cells: CHO-K1 with CRE-SPAP reporter; conditions: CHO‐α2A; for % 10 μM PDBu, ERK1/2‐phosphorylation: maximum response compared to 10 μM PDBu; for EC50: read-out: Log EC50, ERK1/2‐phosphorylation (converted)
[7] = 3H‐rauwolscine whole cell binding, living cells, negative log KD, mean ± SEM, read-out: Log KD, CHO‐α2C (converted)
[8] = CHO‐α2C cells, 3H‐rauwolscine whole cell binding, given as negative log KD, mean only (SEM in Table 4), read-out: Log KD (converted)
[9] = living cells, negative log KD, mean ± SEM, read-out: Log KD, CHO‐α2A (converted)
[10] = CHO‐α2A, given as negative log KD, read-out: Log KD (binding) (converted)
[11] = Log IC50 (Gi), CRE‐SPAP (with forskolin), CHO‐α2A (cell line 1, 5830 fmol/mg protein), 3 μM forskolin
[12] = Log IC50 (Gi), CRE‐SPAP (with forskolin), CHO‐α2C cells, inhibition of 3 μM forskolin‐stimulated CRE‐SPAP production, given as negative log IC50, mean ± SEM
[13] = ^app: apparent KD, IC50 from extrapolated curve as not all specific binding was inhibited, read-out: Log KD (apparent), CHO‐α2A (converted)

SMILES | Kd (human α2C‐adrenoceptor [1]; [7]) | Kd (human α2C‐adrenoceptor [1]; [8]) | Selectivity ratio α2B vs α2C (higher affinity for α2C) (human α2C‐adrenoceptor [1]) | Kd (human α2A‐adrenoceptor [2]; [9]) | Kd (human α2A‐adrenoceptor [2]; [10]) | Selectivity ratio α2A vs α2B (higher affinity for α2A) (human α2A‐adrenoceptor [2]) | Selectivity ratio α2A vs α2C (higher affinity for α2A) (human α2A‐adrenoceptor [2]) | % inhibition, CRE‐SPAP (with forskolin) (human α2A‐adrenoceptor [3]) | Log EC50 (Gs), CRE‐SPAP (without forskolin) (human α2A‐adrenoceptor [3]) | Log efficacy ratio (KD/IC50) (human α2A‐adrenoceptor [3]; CHO‐α2A) | IC50 (human α2A‐adrenoceptor [3]; [11]) | % inhibition, CRE‐SPAP (with forskolin) (human α2C‐adrenoceptor [4]; CHO‐α2C cells) | Log EC50 (Gs), CRE‐SPAP (without forskolin) (human α2C‐adrenoceptor [4]; CHO‐α2C cells) | Log efficacy ratio (KD/IC50) (human α2C‐adrenoceptor [4]; CHO‐α2C cells) | IC50 (human α2C‐adrenoceptor [4]; [12]) | % 10 μM PDBu, ERK1/2‐phosphorylation (human α2C‐adrenoceptor [5]) | EC50 (human α2C‐adrenoceptor [5]) | % 10 μM PDBu, ERK1/2‐phosphorylation (human α2A‐adrenoceptor [6]) | EC50 (human α2A‐adrenoceptor [6]) | Kd (human α2A‐adrenoceptor [2]; [13]) | other results
c1ccc2c(CC3=NCCN3)cccc2c1 [Naphazoline] | 0.398 µM | 0.398 µM | 4.0 | 0.0977 µM | 0.0977 µM | 16.2 | 4.1 | 83.1 ± 3.6% | No response | 0.78 | 0.0162 µM | 81.3 ± 4.2% | No response | 0.72 | 0.0759 µM | 157.8 ± 12.6% | 0.0126 µM | 118.1 ± 9.0% | 0.00191 µM |  | % inhibition, CRE-SPAP (with forskolin) (human α2A‐adrenoceptor [3]; CHO-α2A cell line 2, 4724 fmol/mg protein): 69.4 ± 5.8%; % inhibition, CRE-SPAP (with forskolin) (human α2A‐adrenoceptor [3]; CHO-α2A cell line 3, 121 fmol/mg protein): 24.8 ± 4.3%; IC50 (human α2A‐adrenoceptor [3]; Log IC50 (Gi), CRE-SPAP (with forskolin), CHO-α2A cell line 2, expression 4724 fmol/mg protein, 3 μM forskolin): 0.0575 µM; IC50 (human α2A‐adrenoceptor [3]; Log IC50 (Gi), CRE-SPAP (with forskolin), CHO-α2A cell line 3, expression 121 fmol/mg protein, 3 μM forskolin): 0.417 µM
NCC(O)c1ccc(O)cc1 (centres unmarked) [Octopamine] |  |  |  |  | 417 µM |  |  | 98.1 ± 5.7% | No response |  |  | 86.3 ± 5.2% | No response |  |  | 153.8 ± 17.9% | 7.76 µM | 124.1 ± 11.7% | 4.79 µM | 417 µM | IC50 (human α2C‐adrenoceptor [1]; 3H‐rauwolscine whole cell binding, no KD obtained, read-out: IC50 in binding, CHO‐α2C): ~1000 µM; IC50 (human α2A‐adrenoceptor [3]): 132 µM; IC50 (human α2C‐adrenoceptor [4]): 52.5 µM
c1ccc2c(c1)CCCC2C1=NCCN1 (centres unmarked) [Tetrahydrozoline] | 0.851 µM | 0.851 µM | 6.6 | 0.324 µM | 0.324 µM | 17.4 | 2.6 | 69.3 ± 7.2% | No response | 1.18 | 0.0214 µM | 60.7 ± 3.2% | No response | 0.40 | 0.339 µM | 139.6 ± 19.8% | 0.126 µM | 123.0 ± 12.8% | 0.00363 µM |  | 

The remaining molecules from weak to strong by IC50 (human α2C‐adrenoceptor [4]; [12]), led by results:

Kd (human α2C‐adrenoceptor [1]; [7]) | Kd (human α2C‐adrenoceptor [1]; [8]) | Selectivity ratio α2B vs α2C (higher affinity for α2C) (human α2C‐adrenoceptor [1]) | Kd (human α2A‐adrenoceptor [2]; [9]) | Kd (human α2A‐adrenoceptor [2]; [10]) | Selectivity ratio α2A vs α2B (higher affinity for α2A) (human α2A‐adrenoceptor [2]) | Selectivity ratio α2A vs α2C (higher affinity for α2A) (human α2A‐adrenoceptor [2]) | % inhibition, CRE‐SPAP (with forskolin) (human α2A‐adrenoceptor [3]) | Log EC50 (Gs), CRE‐SPAP (without forskolin) (human α2A‐adrenoceptor [3]) | Log efficacy ratio (KD/IC50) (human α2A‐adrenoceptor [3]; CHO‐α2A) | IC50 (human α2A‐adrenoceptor [3]; [11]) | % inhibition, CRE‐SPAP (with forskolin) (human α2C‐adrenoceptor [4]; CHO‐α2C cells) | Log EC50 (Gs), CRE‐SPAP (without forskolin) (human α2C‐adrenoceptor [4]; CHO‐α2C cells) | Log efficacy ratio (KD/IC50) (human α2C‐adrenoceptor [4]; CHO‐α2C cells) | IC50 (human α2C‐adrenoceptor [4]; [12]) | % 10 μM PDBu, ERK1/2‐phosphorylation (human α2C‐adrenoceptor [5]) | EC50 (human α2C‐adrenoceptor [5]) | % 10 μM PDBu, ERK1/2‐phosphorylation (human α2A‐adrenoceptor [6]) | EC50 (human α2A‐adrenoceptor [6]) | Kd (human α2A‐adrenoceptor [2]; [13]) | SMILES | other results
 | 112 µM | 2.1 |  | 93.3 µM | 2.5 | 1.2 |  | No response |  |  | 72.3 ± 13.6% | No response | 1.01 | 11 µM | 131.0 ± 19.2% | 2.34 µM | 120.9 ± 29.4% | 6.03 µM | 93.3 µM | COc1ccc(OC)c(C(O)C(C)N)c1 (centres unmarked) [Methoxamine] | Kd (human α2C‐adrenoceptor [1]; 3H‐rauwolscine whole cell binding, ^app: apparent KD, IC50 from extrapolated curve as not all specific binding was inhibited, read-out: Log KD (apparent), CHO‐α2C (converted)): 112 µM; IC50 (human α2A‐adrenoceptor [3]; IC50 (Gi), CRE‐SPAP (with forskolin), CHO‐α2A, 3 μM forskolin): > 100 µM
1.55 µM | 1.55 µM | 2.6 | 1.55 µM | 1.55 µM | 2.6 | 1.0 | 94.2 ± 3.6% | No response | 0.96 | 0.17 µM | 69.0 ± 7.9% | No response | 0.52 | 0.468 µM | 125.2 ± 15.6% | 0.049 µM | 144.0 ± 22.0% | 0.0148 µM |  | C1COC(NC(C2CC2)C2CC2)=N1 [Rilmenidine] | 
0.851 µM | 0.851 µM | 7.9 | 0.417 µM | 0.417 µM | 16.2 | 2.0 | 43.6 ± 4.4% | No response | −0.16 |  | 74.2 ± 2.1% | No response | 0.41 | 0.331 µM | 139.1 ± 10.2% | 0.0832 µM | 113.0 ± 14.3% | 0.158 µM |  | c1ccc(C2CC2)c(OCC2=NCCN2)c1 [Cirazoline] | IC50 (human α2A‐adrenoceptor [3]): 0.603 µM

— PMC9471048, “The signaling and selectivity of α‐adrenoceptor agonists for the human α2A, α2B and α2C‐adrenoceptors and comparison with human α1 and β‐adrenoceptors” (Pharmacology Research & Perspectives, 2022)
